# Literature values as cited in US7423028B2, “Injectable pharmaceutical compositions comprising sodium diclofenac and β-cyclodextrin” (Ibsa Institut Biochemique S.A., priority 2004, dated 2008).
structure (smiles),measurement,value
"O=C([O-])Cc1ccccc1Nc1c(Cl)cccc1Cl.[Na+] [sodium diclofenac, 2-[(2,6-dichlorophenyl)amino]benzeneacetic acid monosodium salt]",solubility in water,sparingly soluble in water
